Results taken from US11149054B2, “Oxysterols and methods of use thereof” (Sage Therapeutics, Inc., priority 2016, dated 2021).
Like-named read-outs stand apart in the source and are kept apart here.

Assays:
[1] = target: GlunN1/GluN2A glutamate receptors (Homo sapiens (Human), UniProt Q05586+Q12879); assay: Whole-cell patch clamp of mammalian cells (Ionworks Barracuda), positive allosteric modulation, GluN1/GluN2A; format: cell-based
How it was run: (§1)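 Perforated-patch whole-cell recording, holding −70 mV, −40 mV during application; Cs-based internal pH 7.2, external with 5 mM CaCl2 pH 7.4. Test article pre-applied alone 5 min, then co-applied with EC20 L-glutamate plus 30 μM glycine. EC50 from Hill fit of % activation over the EC20 current.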

[2] = target: GluN2B glutamate receptors (Homo sapiens (Human), UniProt Q05586+Q13224); assay: Whole-cell patch clamp of mammalian cells (Ionworks Barracuda), positive allosteric modulation, GluN2B; format: cell-based; conditions: for Emax: read-out: Avg Emax 2B (%)
Chain of GluN2B glutamate receptors (Q13224 27-1484, other chains not shown): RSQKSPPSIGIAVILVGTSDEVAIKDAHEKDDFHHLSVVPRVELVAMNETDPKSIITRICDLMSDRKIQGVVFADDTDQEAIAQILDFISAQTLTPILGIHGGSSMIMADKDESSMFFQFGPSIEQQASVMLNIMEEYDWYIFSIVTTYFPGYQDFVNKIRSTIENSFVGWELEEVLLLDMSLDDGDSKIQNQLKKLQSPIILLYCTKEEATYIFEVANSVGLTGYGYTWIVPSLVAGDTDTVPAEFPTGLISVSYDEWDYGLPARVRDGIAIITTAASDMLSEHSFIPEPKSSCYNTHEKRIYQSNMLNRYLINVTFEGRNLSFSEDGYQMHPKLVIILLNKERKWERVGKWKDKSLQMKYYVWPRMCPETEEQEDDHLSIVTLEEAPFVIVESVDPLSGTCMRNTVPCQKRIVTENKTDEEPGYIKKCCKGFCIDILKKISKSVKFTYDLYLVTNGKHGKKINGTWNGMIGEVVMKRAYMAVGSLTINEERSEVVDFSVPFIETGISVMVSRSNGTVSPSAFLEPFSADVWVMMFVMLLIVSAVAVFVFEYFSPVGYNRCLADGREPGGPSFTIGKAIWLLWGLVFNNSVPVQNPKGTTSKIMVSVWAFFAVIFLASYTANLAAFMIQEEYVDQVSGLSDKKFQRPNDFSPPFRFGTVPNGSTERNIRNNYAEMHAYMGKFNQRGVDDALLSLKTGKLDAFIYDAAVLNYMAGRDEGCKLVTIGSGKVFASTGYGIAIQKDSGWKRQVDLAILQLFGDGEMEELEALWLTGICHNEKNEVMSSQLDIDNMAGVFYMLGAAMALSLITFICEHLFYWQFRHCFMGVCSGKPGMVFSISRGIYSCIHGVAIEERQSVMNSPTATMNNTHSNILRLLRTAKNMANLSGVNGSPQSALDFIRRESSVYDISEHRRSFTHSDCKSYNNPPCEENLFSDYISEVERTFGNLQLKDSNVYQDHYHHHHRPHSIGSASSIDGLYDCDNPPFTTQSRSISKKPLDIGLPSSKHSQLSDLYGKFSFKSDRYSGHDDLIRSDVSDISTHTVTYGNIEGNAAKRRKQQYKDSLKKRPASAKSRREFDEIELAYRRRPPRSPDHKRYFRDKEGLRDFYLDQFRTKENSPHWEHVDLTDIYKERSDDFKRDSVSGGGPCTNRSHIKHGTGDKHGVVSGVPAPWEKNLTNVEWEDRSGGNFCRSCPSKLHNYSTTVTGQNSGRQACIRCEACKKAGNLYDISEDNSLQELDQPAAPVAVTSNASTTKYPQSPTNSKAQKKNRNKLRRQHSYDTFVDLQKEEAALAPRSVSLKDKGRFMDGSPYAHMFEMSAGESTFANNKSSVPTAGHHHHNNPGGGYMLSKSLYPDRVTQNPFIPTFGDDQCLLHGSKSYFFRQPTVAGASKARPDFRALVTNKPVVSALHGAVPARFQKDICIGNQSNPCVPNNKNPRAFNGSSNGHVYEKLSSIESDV
How it was run: as §1

Chain of GlunN1/GluN2A glutamate receptors (Q12879 23-1464, other chains not shown): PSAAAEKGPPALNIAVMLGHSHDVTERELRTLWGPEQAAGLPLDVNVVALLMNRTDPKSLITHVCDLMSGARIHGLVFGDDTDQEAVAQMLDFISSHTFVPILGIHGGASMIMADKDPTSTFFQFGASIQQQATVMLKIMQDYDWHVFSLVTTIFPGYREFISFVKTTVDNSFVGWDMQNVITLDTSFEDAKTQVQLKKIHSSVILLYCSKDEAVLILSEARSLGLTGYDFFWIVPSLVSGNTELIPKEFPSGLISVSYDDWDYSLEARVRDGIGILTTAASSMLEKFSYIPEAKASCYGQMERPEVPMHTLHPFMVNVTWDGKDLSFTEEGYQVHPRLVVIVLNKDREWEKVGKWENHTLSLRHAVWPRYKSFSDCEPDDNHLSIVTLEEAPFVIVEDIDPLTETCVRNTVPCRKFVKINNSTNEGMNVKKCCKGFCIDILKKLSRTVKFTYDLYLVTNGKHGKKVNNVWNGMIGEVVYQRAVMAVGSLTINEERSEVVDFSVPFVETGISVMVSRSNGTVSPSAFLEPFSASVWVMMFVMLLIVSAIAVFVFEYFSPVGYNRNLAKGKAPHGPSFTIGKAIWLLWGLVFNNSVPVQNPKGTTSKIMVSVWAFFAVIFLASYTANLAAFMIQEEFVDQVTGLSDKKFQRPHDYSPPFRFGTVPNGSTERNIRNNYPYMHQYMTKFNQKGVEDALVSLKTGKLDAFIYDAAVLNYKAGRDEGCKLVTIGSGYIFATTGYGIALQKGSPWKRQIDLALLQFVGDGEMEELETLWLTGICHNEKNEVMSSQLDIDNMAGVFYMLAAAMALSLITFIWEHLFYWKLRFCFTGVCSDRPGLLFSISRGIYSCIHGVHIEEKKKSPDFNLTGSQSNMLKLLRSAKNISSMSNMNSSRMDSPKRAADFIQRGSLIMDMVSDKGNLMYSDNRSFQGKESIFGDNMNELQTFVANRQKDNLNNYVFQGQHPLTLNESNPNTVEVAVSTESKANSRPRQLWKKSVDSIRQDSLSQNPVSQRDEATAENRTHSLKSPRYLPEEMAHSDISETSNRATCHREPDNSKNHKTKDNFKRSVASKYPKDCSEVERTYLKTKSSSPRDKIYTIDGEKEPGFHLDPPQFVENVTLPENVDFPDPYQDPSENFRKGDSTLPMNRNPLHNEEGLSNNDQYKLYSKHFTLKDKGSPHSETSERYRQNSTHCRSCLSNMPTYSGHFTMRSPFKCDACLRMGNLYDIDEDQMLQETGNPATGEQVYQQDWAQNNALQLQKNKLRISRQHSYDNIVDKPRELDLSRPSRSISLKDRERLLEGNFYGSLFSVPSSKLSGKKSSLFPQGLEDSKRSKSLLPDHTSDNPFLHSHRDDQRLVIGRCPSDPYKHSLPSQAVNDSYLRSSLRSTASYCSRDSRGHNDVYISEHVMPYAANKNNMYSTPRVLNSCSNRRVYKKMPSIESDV

Compound | EC50 [1] | Emax ([1]; HEK293, read-out: Avg Emax 2A (%)) | EC50 [2] | Emax [2] | Emax ([1]; HEK293 cells, % potentiation of current elicited with EC20 L-glutamate and 30 μM glycine, read-out: Avg Emax 2A (%)) | Emax ([2]; % potentiation of current elicited with EC20 L-glutamate and 30 μM glycine)
CC[C@]1(O)CC[C@H]2C(=CC[C@@H]3[C@@H]2CC[C@]2(C)[C@@H]([C@H](C)CCC(O)C(C)(C)C)CC[C@@H]32)C1 (some centres unmarked) [Compound 8361] | 87 nM | 252% | 136 nM | 309% | – | –
CC[C@]1(O)CC[C@@]2(C)C(=CC[C@H]3[C@@H]4CC[C@H]([C@H](C)CC[C@H](O)c5ccccc5C#N)[C@@]4(C)CC[C@@H]32)C1 [Compound 7300] | > 10000 nM | – | > 10000 nM | – | 37.5% | 46.9%
